Test results: US20020137929A1, “1 - (3-heterocyclylphenyl) isothiourea, -isourea, -guanidine and -amidine herbicidal agents” (Intellectual Property Department, BASF Aktiengesellschaft, priority 1998, published 2002)

Tests used:
AMBEL (Ragweed, Common) = test: Postemergence herbicidal evaluation; format: in vivo, Ambrosia artemisifolia; details: postemergence
How it was run: (§1)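 Rate range approx. 0.0156–0.500 kg/ha. Foliar application at 40 psi to ~2-week seedlings; surfactant 0.5% TWEEN 20 in 50/50 acetone/water. Evaluation 4–5 wk post-treatment by 0–9 visual injury score, means of replicate tests.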

CASOB (Sicklepod) = test: Postemergence herbicidal evaluation; format: in vivo, Cassia obtusifolia; details: postemergence
How it was run: as §1

GALAP (Galium) [1] = test: Postemergence herbicidal evaluation; format: in vivo, Galium aparine; details: postemergence
How it was run: as §1

[2] = system: GLXMAW (Soybean, Williams); test: Postemergence herbicidal evaluation; format: in vivo, Glycine max, (L.) Merr. cv Williams; details: postemergence
How it was run: as §1

[3] = system: TRZAWR (Wheat, Winter, cv Riband); test: Postemergence herbicidal evaluation; format: in vivo, Triticum aestivum; details: postemergence
How it was run: as §1

GALAP (Galium) [4] = test: Preemergence herbicidal evaluation; format: in vivo, Galium aparine; details: rate 0.0313 kg/ha; rated 4-5 weeks after treatment
How it was run: (§2)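 In this greenhouse assay, monocot and dicot seeds are planted in soil and treated prior to emergence with an aqueous acetone spray (about 0.0156-0.500 kg/ha). Plants are assessed visually against control on a 0-9 scale after 4-5 weeks.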

SETVI (Foxtail, Green) = test: Preemergence herbicidal evaluation; format: in vivo, Setaria viridis; details: rated 4-5 weeks after treatment
How it was run: as §2

ORYSAT (Rice, Tebonnet) = test: Preemergence herbicidal evaluation; format: in vivo, Oryza sativa, (L.) Tebonnet; details: rated 4-5 weeks after treatment
How it was run: as §2

[5] = system: ECHORC (Watergrass (Calif.)); test: Preemergence weed control under flooded paddy conditions; format: in vivo, Echinochloa oryzoides; details: rated 3-4 weeks after treatment
How it was run: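 Seeds or propagules sown in top 0.5 cm of silt loam soil, flooded 1.5 to 3 cm above surface throughout. Compound in 50/50 v/v aqueous/acetone pipetted into flood water at about 0.0313 to 0.500 kg/ha. Visual 0-9 rating versus control after three to four weeks in greenhouse.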

CYPSE (Flatsedge) = test: as above; format: in vivo, Cyperus serotinus; details: rated 3-4 weeks after treatment
How it was run: (§3)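 Silt loam, seeds in top 0.5 cm; flood held 1.5-3 cm; test cpd as acetone/water 50/50 into flood water, ~0.0313-0.500 kg/ha a.i.; greenhouse 3-4 wk; visual 0-9 score vs control.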

MOOVA (Monochoria) = test: as above; format: in vivo, Monochoria vaginalis; details: rated 3-4 weeks after treatment
How it was run: as §3

[6] = system: SAGPY (Arrowhead (Pygmaea)); test: as above; format: in vivo, Sagittaria pygmaea; details: rated 3-4 weeks after treatment
How it was run: as §3

[7] = system: ECHORC (Watergrass (Calif.)); test: Postemergence weed control under flooded paddy conditions; format: in vivo, Echinochloa oryzoides; details: postemergence weeds, 3-4 weeks after treatment
How it was run: (§4)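 Weeds 3 to 5 cm tall and rice seedlings at the 1.5 to 2.5 leaf stage were flooded, with water held 1.5 to 3 cm above the soil. Compounds in 50/50 v/v aqueous/acetone went into the flood water at about 0.0313 to 0.500 kg/ha. Visual 0-9 ratings versus control were made 3 to 4 weeks later.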

[8] = system: SAGPY (Arrowhead (Pygmaea)); test: as above; format: in vivo, Sagittaria pygmaea; details: postemergence weeds, 3-4 weeks after treatment
How it was run: as §4

O=C1CSC(=Nc2cc(N3C(=O)C4=C(CCCC4)C3=O)c(F)cc2Cl)N1c1ccccc1 [Compound 3, N-{4-chloro-2-fluoro-5-[(4-oxo-3-phenyl-2-thiazolidinylidene)amino]phenyl}-1-cyclohexene-1,2-dicarboximide]
AMBEL herbicidal rating (AMBEL (Ragweed, Common); rate 0.0313 kg/ha): 2.0
AMBEL herbicidal rating (AMBEL (Ragweed, Common); rate 0.0625 kg/ha): 0.0
AMBEL herbicidal rating (AMBEL (Ragweed, Common); rate 0.1250 kg/ha): 6.0
AMBEL herbicidal rating (AMBEL (Ragweed, Common); rate 0.2500 kg/ha): 6.0
AMBEL herbicidal rating (AMBEL (Ragweed, Common); rate 0.5000 kg/ha): 9.0
CASOB herbicidal rating (CASOB (Sicklepod); rate 0.0157 kg/ha): 0.0
CASOB herbicidal rating (CASOB (Sicklepod); rate 0.0313 kg/ha): 0.0
CASOB herbicidal rating (CASOB (Sicklepod); rate 0.0625 kg/ha): 0.0
CASOB herbicidal rating (CASOB (Sicklepod); rate 0.1250 kg/ha): 0.0
CASOB herbicidal rating (CASOB (Sicklepod); rate 0.2500 kg/ha): 6.0
CASOB herbicidal rating (CASOB (Sicklepod); rate 0.5000 kg/ha): 4.0
GALAP herbicidal rating (GALAP (Galium) [1]; rate 0.0157 kg/ha): 9.0
GALAP herbicidal rating (GALAP (Galium) [1]; rate 0.0313 kg/ha): 2.0
GALAP herbicidal rating (GALAP (Galium) [1]; rate 0.0625 kg/ha): 4.0
GALAP herbicidal rating (GALAP (Galium) [1]; rate 0.1250 kg/ha): 4.0
GALAP herbicidal rating (GALAP (Galium) [1]; rate 0.2500 kg/ha): 6.0
GALAP herbicidal rating (GALAP (Galium) [1]; rate 0.5000 kg/ha): 9.0
GLXMAW herbicidal rating ([2]; rate 0.0157 kg/ha): 2.5
GLXMAW herbicidal rating ([2]; rate 0.0313 kg/ha): 3.5
GLXMAW herbicidal rating ([2]; rate 0.0625 kg/ha): 3.0
GLXMAW herbicidal rating ([2]; rate 0.1250 kg/ha): 4.0
GLXMAW herbicidal rating ([2]; rate 0.2500 kg/ha): 4.0
GLXMAW herbicidal rating ([2]; rate 0.5000 kg/ha): 4.5
TRZAWR herbicidal rating ([3]; rate 0.0157 kg/ha): 2.5
TRZAWR herbicidal rating ([3]; rate 0.0313 kg/ha): 2.5
TRZAWR herbicidal rating ([3]; rate 0.0625 kg/ha): 3.0
TRZAWR herbicidal rating ([3]; rate 0.1250 kg/ha): 2.5
TRZAWR herbicidal rating ([3]; rate 0.2500 kg/ha): 3.0
TRZAWR herbicidal rating ([3]; rate 0.5000 kg/ha): 4.0
GALAP preemergence herbicidal rating (GALAP (Galium) [4]): 4.0
SETVI preemergence herbicidal rating (SETVI (Foxtail, Green); rate 0.0313 kg/ha): 0.0
SETVI preemergence herbicidal rating (SETVI (Foxtail, Green); rate 0.0625 kg/ha): 4.0
SETVI preemergence herbicidal rating (SETVI (Foxtail, Green); rate 0.1250 kg/ha): 4.0
SETVI preemergence herbicidal rating (SETVI (Foxtail, Green); rate 0.2500 kg/ha): 4.0
SETVI preemergence herbicidal rating (SETVI (Foxtail, Green); rate 0.5000 kg/ha): 9.0
ORYSAT preemergence herbicidal rating (ORYSAT (Rice, Tebonnet); rate 0.0313 kg/ha): 0.0
ORYSAT preemergence herbicidal rating (ORYSAT (Rice, Tebonnet); rate 0.0625 kg/ha): 0.0
ORYSAT preemergence herbicidal rating (ORYSAT (Rice, Tebonnet); rate 0.1250 kg/ha): 0.0
ORYSAT preemergence herbicidal rating (ORYSAT (Rice, Tebonnet); rate 0.2500 kg/ha): 0.0
ORYSAT preemergence herbicidal rating (ORYSAT (Rice, Tebonnet); rate 0.5000 kg/ha): 1.0
Herbicidal rating ECHORC ([5]; 0.0625 kg/ha): 0.0
Herbicidal rating ECHORC ([5]; 0.1250 kg/ha): 0.0
Herbicidal rating ECHORC ([5]; 0.2500 kg/ha): 2.0
Herbicidal rating ECHORC ([5]; 0.5000 kg/ha): 4.0
Herbicidal rating CYPSE (CYPSE (Flatsedge); 0.0625 kg/ha): 0.0
Herbicidal rating CYPSE (CYPSE (Flatsedge); 0.1250 kg/ha): 0.0
Herbicidal rating CYPSE (CYPSE (Flatsedge); 0.2500 kg/ha): 0.0
Herbicidal rating CYPSE (CYPSE (Flatsedge); 0.5000 kg/ha): 0.0
Herbicidal rating MOOVA (MOOVA (Monochoria); 0.0625 kg/ha): 2.0
Herbicidal rating MOOVA (MOOVA (Monochoria); 0.1250 kg/ha): 9.0
Herbicidal rating MOOVA (MOOVA (Monochoria); 0.2500 kg/ha): 9.0
Herbicidal rating MOOVA (MOOVA (Monochoria); 0.5000 kg/ha): 9.0
Herbicidal rating SAGPY ([6]; 0.0625 kg/ha): 0.0
Herbicidal rating SAGPY ([6]; 0.1250 kg/ha): 0.0
Herbicidal rating SAGPY ([6]; 0.2500 kg/ha): 0.0
Herbicidal rating SAGPY ([6]; 0.5000 kg/ha): 0.0
Herbicidal rating ECHORC ([7]; rate 0.0625 kg/ha): 0.0
Herbicidal rating ECHORC ([7]; rate 0.1250 kg/ha): 0.0
Herbicidal rating ECHORC ([7]; rate 0.2500 kg/ha): 1.0
Herbicidal rating ECHORC ([7]; rate 0.5000 kg/ha): 2.0
Herbicidal rating SAGPY ([8]; rate 0.0625 kg/ha): 0.0
Herbicidal rating SAGPY ([8]; rate 0.1250 kg/ha): 0.0
Herbicidal rating SAGPY ([8]; rate 0.2500 kg/ha): 0.0
Herbicidal rating SAGPY ([8]; rate 0.5000 kg/ha): 0.0
